Source: article PMC10562414, “GLP-1R signaling neighborhoods associate with the susceptibility to adverse drug reactions of incretin mimetics” (Nature Communications, 2023)

Assays:
[1] = ref [56], [57], cited from earlier work
[2] = Adverse drug event analysis (FAERS, log likelihood ratio); conditions: for logLR: Fig. 6d; for proportion, Pancreatic disease: ADR_TERM Pancreatic disease
[3] = test system: GLP-1R-expressing HEK293 cells + Dyngo-4A (phosphoproteome); experiment: Phosphoproteomics, GLP-1R-transfected cells with internalization inhibitor Dyngo-4A, 30 min; assay type: cell-based, human; conditions: 50 μM, 30 min preincubation
Description: P values were calculated by a two-sided unpaired t-test.
HEK293 cells (350,000 cells/mL) were transfected in suspension using 3 μg of linear PEI (MW 25,000) per 1 μg of plasmid DNA and seeded onto poly-D-lysine-coated 60 mm dishes at a density of 1,750,000 cells per dish. After a 24-h incubation, cells were washed twice with PBS and placed in starvation media (DMEM with penicillin/streptomycin). After a 48-h incubation, cells were washed twice with HBSS and maintained in the same buffer. […] Cell extracts were prepared as previously described[64]–[66]. In short, 200 μL of the lysis buffer preheated at 95 °C (4% sodium dodecyl sulfate in 50 mM Tris adjusted to pH 8.5) was added to the cells. The samples were then denatured at 95 °C for 10 min, placed on ice and then sonicated using a probe sonicator (3 sec on, 3 sec off pulse, 1 min, 30% amplitude) (Branson). Lysate protein concentration was determined using the Pierce bicinchoninic acid assay kit (Thermo Fisher Scientific) according to the manufacturer’s instructions. The lysates were reduced using 5 mM dithiothreitol for 1 h at room temperature and alkylated using 15 mM iodoacetamide for 1 h at room temperature in the dark. Proteins were precipitated and digested on beads using MagReSyn Amine magnetic beads (ReSyn Biosciences) according to the manufacturer’s instructions. Protein digestion was conducted overnight at 37 °C with lysyl endopeptidase (LysC, Wako) (1:150 LysC/protein, w/w) and trypsin (1:300 trypsin/protein, w/w). 20% TFA, 2 M glycolic acid in 80% ACN were added to the samples at a 1:1 ratio for phosphopeptide enrichment using MagReSyn TiO2 magnetic beads (ReSyn Biosciences) according to the manufacturer’s instructions. The enriched phosphopeptides were dried overnight in a SpeedVac, resuspended into 5% formic acid (FA), desalted using StageTip (Thermo Fisher Scientific) according to the manufacturer’s instructions and dried in a SpeedVac. The experiment was performed in biological triplicates.
All parameters and settings regarding the acquisition of the proteomics data can be found in Supplementary Data 11, 12. For data acquisition, the instrument was set to peptide mode, with a trapping pressure set as low (2mTorr). An EASY-Spray Source (Thermo Fisher Scientific) was used and the column temperature was maintained with the integrated, temperature-controlled heater at 55 °C throughout the experiment. For the data presented in Fig. 5d, the column was heated at 50 °C following the manufacturer’s instructions (IonOpticks).
Acquired raw files were converted to mzML format by MSConvert (version 3.0.21258)[67] applying peak picking of the mass spectra with the vendor-provided algorithm (Thermo Fisher Scientific). The mzML files were analyzed using the FragPipe GUI v18 for both library and DIA search. […] Trypsin with up to 2 missed cleavages was set as digestion enzyme, oxidation of methionine, acetylation of the N-terminus and phosphorylation on serine, threonine and tyrosine (maximal occurrence was set to three) were set as variable modifications. Carbamidomethylation of cysteine residues was set as a fixed modification. Peptide length was restricted to 7 to 50 amino acids, and 500 to 5000 Da. The precursor tolerance was set to ±20 ppm, fragment mass tolerance to 20 ppm and MSBooster was enabled. The resulting peptide-spectrum matches were adjusted to a 1% false discovery rate with Percolator[69] as part of the Philosopher toolkit (v4.4)[70] and converted to a spectra library. DIA files were analyzed by DIA-NN 1.8.1[71], [72] using the previously generated library and monitor-command mode. Peptide quantification was performed based on the fragment elution profiles from the MS2 level (area under the curve).
All further data processing was performed in R (version 4.2.1). Only phosphopeptides with a localization score of at least 0.75 were considered for further analysis. […]

[4] = SOC Endocrine disorders, FAERS via Open Targets
[5] = SOC Gastrointestinal disorders, FAERS via Open Targets
[6] = SOC Investigations, FAERS via Open Targets
[7] = SOC Metabolism and nutrition disorders, FAERS via Open Targets

CC[C@H](C)[C@H](NC(=O)[C@H](Cc1ccccc1)NC(=O)[C@H](CCC(=O)O)NC(=O)[C@H](CCCCNC(=O)COCCOCCNC(=O)COCCOCCNC(=O)CC[C@H](NC(=O)CCCCCCCCCCCCCCCCC(=O)O)C(=O)O)NC(=O)[C@H](C)NC(=O)[C@H](C)NC(=O)[C@H](CCC(N)=O)NC(=O)CNC(=O)[C@H](CCC(=O)O)NC(=O)[C@H](CC(C)C)NC(=O)[C@H](Cc1ccc(O)cc1)NC(=O)[C@H](CO)NC(=O)[C@H](CO)NC(=O)[C@@H](NC(=O)[C@H](CC(=O)O)NC(=O)[C@H](CO)NC(=O)[C@@H](NC(=O)[C@H](Cc1ccccc1)NC(=O)[C@@H](NC(=O)CNC(=O)[C@H](CCC(=O)O)NC(=O)C(C)(C)NC(=O)[C@@H](N)Cc1cnc[nH]1)[C@@H](C)O)[C@@H](C)O)C(C)C)C(=O)N[C@@H](C)C(=O)N[C@@H](Cc1c[nH]c2ccccc12)C(=O)N[C@@H](CC(C)C)C(=O)N[C@H](C(=O)N[C@@H](CCCNC(=N)N)C(=O)NCC(=O)N[C@@H](CCCNC(=N)N)C(=O)NCC(=O)O)C(C)C [Semaglutide]
pancreatitis reports, in words ([1]; FAERS): lower incidence of pancreatitis
logLR, diabetic ketoacidosis [1, 4]: 101.6
logLR, diabetic retinopathy [1, 4]: 83.01
logLR, abdominal pain [1, 5]: 80.54
logLR, diarrhoea [1, 5]: 91.4
logLR, eructation [1, 5]: 76.22
logLR, gastrointestinal disorder [1, 5]: 66.93
logLR, nausea [1, 5]: 351
logLR, pancreatic carcinoma [1, 5]: 37.15
logLR, pancreatitis [1, 5]: 599.6
logLR, pancreatitis acute [1, 5]: 54.4
logLR, vomiting [1, 5]: 332.8
logLR, decreased appetite ([1]; SOC General disorders and administration site conditions, FAERS via Open Targets): 42.19
logLR, blood glucose increased [1, 6]: 43.39
logLR, glycosylated haemoglobin increased [1, 6]: 60.95
logLR, heart sounds [1, 6]: 49.27
logLR, lipase increased [1, 6]: 49.97
logLR, weight decreased [1, 6]: 122.9
logLR, dehydration [1, 7]: 53.42
logLR, euglycaemic diabetic ketoacidosis [1, 7]: 71.84
logLR, retinopathy [1, 7]: 95.38
logLR, acute kidney injury ([1]; SOC Renal and urinary disorders, FAERS via Open Targets): 39.07
logLR, prolonged expiration ([1]; SOC Respiratory disorders, FAERS via Open Targets): 36.95
logLR ([2]; Endocrine disorders: diabetic ketoacidosis): 101.6
logLR ([2]; Endocrine disorders: diabetic retinopathy): 83.01
logLR ([2]; Gastrointestinal disorders: abdominal pain): 80.54
logLR ([2]; Gastrointestinal disorders: diarrhoea): 91.4
logLR ([2]; Gastrointestinal disorders: eructation): 76.22
logLR ([2]; Gastrointestinal disorders: gastrointestinal disorder): 66.93
logLR ([2]; Gastrointestinal disorders: nausea): 351
logLR ([2]; Gastrointestinal disorders: pancreatic carcinoma): 37.15
logLR ([2]; Gastrointestinal disorders: pancreatitis): 599.6
logLR ([2]; Gastrointestinal disorders: pancreatitis acute): 54.4
logLR ([2]; Gastrointestinal disorders: vomiting): 332.8
logLR ([2]; General disorders and administration site conditions: decreased appetite): 42.19
logLR ([2]; Investigations: blood glucose increased): 43.39
logLR ([2]; Investigations: glycosylated haemoglobin increased): 60.95
logLR ([2]; Investigations: heart sounds): 49.27
logLR ([2]; Investigations: lipase increased): 49.97
logLR ([2]; Investigations: weight decreased): 122.9
logLR ([2]; Metabolism and nutrition disorders: dehydration): 53.42
logLR ([2]; Metabolism and nutrition disorders: euglycaemic diabetic ketoacidosis): 71.84
logLR ([2]; Metabolism and nutrition disorders: retinopathy): 95.38
logLR ([2]; Renal and urinary disorders: acute kidney injury): 39.07
logLR ([2]; Respiratory disorders: prolonged expiration): 36.95
proportion, Abdominal pain ([2]; Supplementary Fig. 21, ADR_TERM Abdominal pain): 0.04766
proportion, Diarrhoea ([2]; Supplementary Fig. 21, ADR_TERM Diarrhoea): 0.05408
proportion, Eructation ([2]; Supplementary Fig. 21, ADR_TERM Eructation): 0.0451
proportion, Gastrointestinal disorder ([2]; Supplementary Fig. 21, ADR_TERM Gastrointestinal disorder): 0.03961
proportion, Nausea ([2]; Supplementary Fig. 21, ADR_TERM Nausea): 0.2077
proportion, Pancreatic disease ([2]; Supplementary Fig. 21, first group): 0.02198
proportion, Pancreatic disease ([2]; Supplementary Fig. 21, fourth group (r25-r28)): 0.03219
proportion, Pancreatic disease ([2]; Supplementary Fig. 21, third group (r21-r24)): 0.3548
proportion, Vomiting ([2]; Supplementary Fig. 21, ADR_TERM Vomiting): 0.1969

O=C(N/N=C/c1cc(O)c(O)cc1O)c1cc2ccccc2cc1O [Dyngo-4A]
effect on magnitude of agonist-induced phosphorylation events [3]: affected
